The values that follow come from patent US6887878B2, “KMST isoeugenol derivatives and pharmaceutical activity” (Ing-Jun Chen, priority 2003, dated 2005).

In one experiment the target is T1, β1-adrenoceptor (Rattus norvegicus, UniProt P18090).
T1 construct: Left atria were dissected from the hearts and mounted in a 10 ml organ bath; from tissue; host or cells: rat left atria, electrically driven
As to the kind of experiment: isoprenaline-induced positive inotropic effects in electrically stimulated rat left atria (pA2). The arrangement: species or system Wistar rat. Particulars: Schild plot, mean ± SEM of eight, listed as KMST. As for the experimental part:
Rats of either sex weighing 350-500 g were sacrificed after mild anesthesia with ether, and their hearts were quickly excised. Left atria were dissected from the hearts and mounted in a 10 ml organ bath with one end fixed and the other end connected to a force displacement transducer (Grass, Model FT03). […] Atria were pre-stretched to a baseline tension of 0.5 g and equilibrated for 60 min in an aerated Krebs solution before starting experimental protocols. Atria were driven at 2-s intervals via two platinum electrodes on each side. An incubation time of 30 min was allowed for the test compound.

Experiment [1] relates to epinephrine-induced human platelet aggregation. Kind of experiment: epinephrine-induced human platelet aggregation. The class given is cell-based. Conditions: epinephrine 5 μM, PRP. As for the experimental part: (§1) Venous blood from human volunteer donors was collected in 10 ml Monovette containing 1 ml citrate solution (0.106M trisodium citrate; Sarstedt, Nümbrecht, Germany) and centrifuged (400 g, 10 min, 20° C.). […] After centrifugation (10 min, 2000 g, 20° C.), the platelet pellet was resuspended in wishing buffer (113 mM NaCl, 4 mM Na2HPO4, 24 mM NaH2PO4, 4 mM KCl, 0.2 mM EGTA(Ethylene glycol-bis-(2-aminoethyl ether) N,N,N′-tetraacetic acid), 0.1% (wt/vol) glucose, pH 6.0) and recentrifuged (10 min, 2000 g, 20° C.). The washed platelets were resuspended in incubation buffer (134 mM NaCl, 12 mM NaHCO3, 2.9 mM KCl, 0.34 mM NaH2PO4, 5 mM HEPES (N-(2-hydroxyethyl) piperazine-N′-(2-ethanesulfonic acid)), 5 mM glucose, pH7.4), cells were counted in a Sysmex hematology analyzer (Sysmex, CDA-500, Japan) and adjusted to a final concentration of 2×10^8 platelets/ml.
(§2) The aggregation of the platelets in platelet-rich plasma (PRP) was measured as a change in light absorbance by a Payton dual-channel aggregometer (NBS, Hema tracer, Japan). PRP (240 μL) was stirred (700 rpm) at 37° C. for 1 min, and 5 μL epinephrine (final concentration 5 μM), serotonin (final concentration 5 μM) was added. After which the rate of primary aggregation (1/min) and maximum aggregation (%) at 5 min were recorded. To study the effects of compounds on epinephrine or serotonin-induced aggregation, PRP was incubated with 5 μL of compounds at various concentrations for 1 min before epinephrine or serotonin was added. IC50 values given were calculated from the secondary aggregation data.

Another experiment deals with α2 receptors. Kind of experiment: [3H]yohimbine receptor binding in rat cortex. The arrangement: species or system Wistar rat. As for the experimental part:
(§3) The homogenate was pressure filtered through muslin. Filtrate was centrifuged at 1000 g for 10 min. […] Protein content was determined by Bradford's method.

Experiment [2] concerns phenylephrine-induced contractions in rat thoracic aorta. Kind of experiment: LPS-induced vascular hyporeactivity: phenylephrine-induced contractions in rat thoracic aorta. The experiment is classed as in vivo, Wistar rat. Particulars: for pD2 at 3rd hr / pD2 at 5th hr: pD2 to phenylephrine.
Experiment [3] concerns serotonin-induced human platelet aggregation. Kind of experiment: serotonin-induced human platelet aggregation. The experiment is classed as cell-based. Conditions: serotonin 5 μM, PRP; read-out: IC50 serotonin-induced human platelet aggregation. As for the experimental part: as §1, §2
Experiment [4] is described as follows: LPS-induced blood glucose changes. The class given is in vivo, rat. As for the experimental part: In brief, Wistar rats weighing 250-300 g were anesthetized with pentobarbital sodium (50 mg kg^−1, i.p.). Following tracheal cannulation, systemic arterial BP and HR were recorded from the femoral artery by a pressure transducer (model P10EZ; Spectramed, Oxnard, Calif., U.S.A.) connected to a recorder (GOULD, Valley View, Ohio, Model P50). Body temperature was maintained at 37° C. by an electric heating pad. A femoral vein was cannulated for intravenous injection of drugs and LPS (10 mg kg^−1).
Blood was collected from venous cannula, injected into ice-cold heparinized Eppendorf tubes and centrifuged at 1500 rpm for 10 min at 4° C. Plasma supernatant was stored at −70° C. until analyzed. Solid phase enzyme immunoassay that specifically detects murine IL-1β, IL-6, IFN-γ and TNF-α was used with a detection limit of >10 pg/ml (Endogen, U.S.A). Pre-treatment with KMST and other agents was performed 15 minutes before intravenous injection of LPS. Blood was collected from venous cannula. Blood glucose was measured with a glucose test strip (Glucotide, Bayer, U.S.A) at 1, 3 and 5 hours.

The next experiment concerns the target T2, 5-HT1B (Rattus norvegicus, UniProt P28564).
T2 construct: from tissue; host or cells: Wistar rat cortex membranes
Kind of experiment: [3H]GR125743 receptor binding in rat cortex. On the set-up: species or system Wistar rat. Particulars: [3H]GR125743 (5-HT1B/1D), rat cortex; read-out: Ki 5-HT1B. As for the experimental part: as §3

A further experiment deals with α1 receptors. As to the kind of experiment: [3H]prazosin receptor binding in rat cortex. On the set-up: species or system Wistar rat. As for the experimental part:
as §3

Another experiment addresses T3, 5-HT re-uptake (Rattus norvegicus, UniProt P31652).
T3 construct: the cerebral cortex or striatum was dissected and crude synaptosomes were prepared; from tissue; host or cells: crude synaptosomes of Wistar rat cerebral cortex
Kind of experiment: 5-HT re-uptake in cerebral cortex synaptosomes. Conditions: read-out: IC50 of 5-HT uptake inhibition. The experiment is classed as biochemical, Wistar rat. As for the experimental part: Wistar rats weighting 150-200 g were decapitated, the cerebral cortex or striatum was dissected and crude synaptosomes were prepared. […] Uptake was initiated by the addition of 50 μl of [^3H] […] Saline was added to the incubation mixture, which was then filtered through a Whatman GF/B glass filter under reduced pressure. To determine nonspecific uptake, incubation was performed at 0° C.

Another experiment concerns the target M2. Kind of experiment: M2 receptor binding. The arrangement: species or system guinea pig.
The target in experiment [5] is T4, 5-HT2A receptor (Rattus norvegicus, UniProt P14842). Kind of experiment: 5-HT-induced contraction in isolated rat thoracic aorta (pA2). On the set-up: Rat thoracic aorta was removed, cleaned of adhering fat and connective tissue; from tissue; host or cells: Wistar rat thoracic aorta rings; species or system Wistar rat. Particulars: Schild plot, mean ± SEM of eight, listed as KMST. As for the experimental part: Clonidine, noradrenaline and serotonin (10^−8˜10^−4 M) were added to the bath to induce contractions after pretreatment with KMST for 15 min.
T4 sequence (P14842 whole entry): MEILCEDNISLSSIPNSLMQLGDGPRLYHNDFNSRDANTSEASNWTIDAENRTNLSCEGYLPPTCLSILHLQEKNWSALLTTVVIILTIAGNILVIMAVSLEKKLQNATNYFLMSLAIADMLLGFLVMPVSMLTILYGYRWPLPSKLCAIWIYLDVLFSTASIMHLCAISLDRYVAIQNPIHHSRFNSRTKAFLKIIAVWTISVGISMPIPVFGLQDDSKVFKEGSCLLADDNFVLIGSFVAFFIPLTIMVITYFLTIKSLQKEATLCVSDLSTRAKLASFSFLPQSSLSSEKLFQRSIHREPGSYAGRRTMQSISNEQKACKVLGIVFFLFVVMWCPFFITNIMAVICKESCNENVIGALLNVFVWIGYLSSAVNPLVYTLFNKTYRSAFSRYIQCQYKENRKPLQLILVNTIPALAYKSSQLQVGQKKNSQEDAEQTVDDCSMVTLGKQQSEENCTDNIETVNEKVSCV

Experiment [6] concerns the target T4, 5-HT2A receptor. As to the kind of experiment: [3H]ketanserin receptor binding in rat cortex. On the set-up: from tissue; host or cells: Wistar rat cortex membranes; species or system Wistar rat. As for the experimental part:
as §3

[7] abbreviates: agent given after LPS injection (1 hr).
Where [8] appears, read: agent given before LPS injection (30 min).

“And” between values parts separate entries of the source, which are not always exact repeats. Identical values can stand only once. “Also recorded” adds a separate entry of the source. Like-named read-outs stand apart in the source and are kept apart here. A value given as a limit tells only on which side of the number the result lay.

T1 sequence (P18090 whole entry): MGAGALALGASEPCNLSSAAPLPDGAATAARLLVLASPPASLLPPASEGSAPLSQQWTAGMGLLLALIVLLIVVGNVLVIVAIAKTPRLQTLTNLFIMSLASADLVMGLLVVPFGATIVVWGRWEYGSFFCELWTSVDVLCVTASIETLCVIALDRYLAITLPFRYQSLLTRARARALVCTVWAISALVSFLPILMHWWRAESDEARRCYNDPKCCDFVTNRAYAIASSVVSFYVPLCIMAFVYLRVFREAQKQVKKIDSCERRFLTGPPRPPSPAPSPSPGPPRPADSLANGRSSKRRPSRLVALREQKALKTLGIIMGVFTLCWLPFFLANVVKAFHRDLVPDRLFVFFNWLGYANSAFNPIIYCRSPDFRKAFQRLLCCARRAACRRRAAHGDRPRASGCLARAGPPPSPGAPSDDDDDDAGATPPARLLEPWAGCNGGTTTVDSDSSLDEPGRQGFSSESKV
T3 sequence (P31652 whole entry): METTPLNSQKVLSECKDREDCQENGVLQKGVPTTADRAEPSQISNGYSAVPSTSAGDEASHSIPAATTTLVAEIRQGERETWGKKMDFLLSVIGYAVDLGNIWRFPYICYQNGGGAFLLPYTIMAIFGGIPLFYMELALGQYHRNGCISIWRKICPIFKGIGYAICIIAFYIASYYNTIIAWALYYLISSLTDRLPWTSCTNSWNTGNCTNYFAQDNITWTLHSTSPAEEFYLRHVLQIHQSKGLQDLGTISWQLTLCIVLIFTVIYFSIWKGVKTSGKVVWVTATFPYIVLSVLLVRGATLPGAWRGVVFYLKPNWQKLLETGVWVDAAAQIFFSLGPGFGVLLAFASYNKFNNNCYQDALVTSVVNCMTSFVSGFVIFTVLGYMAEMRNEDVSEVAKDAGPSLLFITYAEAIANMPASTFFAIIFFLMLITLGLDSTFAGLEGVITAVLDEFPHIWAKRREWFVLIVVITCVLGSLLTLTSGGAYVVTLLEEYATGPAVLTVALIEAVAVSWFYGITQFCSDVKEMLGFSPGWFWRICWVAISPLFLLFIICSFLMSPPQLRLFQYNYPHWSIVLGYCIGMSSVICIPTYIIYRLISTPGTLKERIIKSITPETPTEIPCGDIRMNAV
T2 sequence (P28564 whole entry): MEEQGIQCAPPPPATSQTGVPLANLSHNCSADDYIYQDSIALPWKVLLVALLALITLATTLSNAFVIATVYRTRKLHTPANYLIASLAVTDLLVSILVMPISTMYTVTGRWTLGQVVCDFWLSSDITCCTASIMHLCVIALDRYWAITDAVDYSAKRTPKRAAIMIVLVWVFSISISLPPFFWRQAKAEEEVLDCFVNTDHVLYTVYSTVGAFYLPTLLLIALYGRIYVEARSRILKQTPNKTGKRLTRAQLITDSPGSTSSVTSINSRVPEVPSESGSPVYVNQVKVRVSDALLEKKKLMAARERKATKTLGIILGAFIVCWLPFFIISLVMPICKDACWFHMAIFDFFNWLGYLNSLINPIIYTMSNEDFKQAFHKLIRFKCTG

The term IC50 denotes the concentration needed to halve the response being measured. Usually Ki stands for a dissociation constant, usually derived from enzyme kinetics or from competition with a known ligand. Regarding `CC=Cc1ccc(OCC(O)CN2CCN(c3cccc(Cl)c3)CC2)c(OC)c1` (stereo not drawn) [Compound 1], the “β1 pA2 value” at β1-adrenoceptor was 6.66±0.17 and 6.66. Besides, the 50% inhibitory concentration (IC50) was found to be 2780 nM in experiment [1], 3.63 nM in experiment [3] and 34300 nM at 5-HT re-uptake. Further, the Ki on α2 receptors was 1840 nM; at α2 receptors (listed as KMST), 1390 nM; on 5-HT1B it was 670 nM; at α1 receptors it was 142 nM; at M2 it was above 10000 nM; at 5-HT2A receptor [6], 33.3 nM. For the same compound, in [2] (1 mg kg−1 i.v. before or after application of LPS, listed as KMST), the “aortic contractility of LPS-treated rats versus vehicle group” value was “improved the aortic contractility better than in vehicle group; also recorded: increased aortic contractility more than the vehicle group”. Further, the “pD2 at 3rd hr” value is listed as 6.29 ± 0.08 in [2] (setting [7]) and 7.16 ± 0.18 in experiment [2] (setting [8]). In addition, the “pD2 at 5th hr” value in [2] (setting [7]) stood at 5.57 ± 0.17; in [2] (setting [8]), 6.29 ± 0.11. Also, the LPS-induced early hyperglycemia entry in experiment [4] (at 1 and 3 hours) is “inhibited”. In addition, in experiment [4] (at 5 hours), the LPS-induced hypoglycemia entry is “did not affect”. Also, on 5-HT2A receptor [5], the “5-HT2A pA2 value” is reported as 8.68±0.12.
